Our source for the AUC and concentration values is patent US5252575A, “Antiviral purine derivatives with improved gastrointestinal absorption” (Beecham Group p.l.c., priority 1992, dated 1993).

Series [1] can be described thus: Further evaluation of BRL55792 as oral prodrug of BRL44385: AUC in blood of squirrel monkeys (Table 2). In kind it is in vivo. The following applies: 110 umol/kg, squirrel monkey, single oral dose 0.11 mmol/kg, 0-8 h, 3 animals. As to the method: |Further evaluation of BRL55792 as a potential oral prodrug of BRL44385 in |rats and squirrel monkeys | ^a Compounds were administered as a single oral dose at either 0.2 | mmol/kg (equivalent to 44.5 mg/kg free BRL44385) to rats with an | indwelling aortic cannula or 0.11 mmol/kg (equivalent to 25 mg/kg free | BRL44385) to squirrel monkeys. Sequential blood samples were collected up | to 8 h after compound administration. Following treatment as described in | table 1, the samples were assayed for BRL55792, BRL44385 and intermediate | matabolites. | ^b Mean areaunder-the-curve values were calculated from blood | concentrationtime profiles from 3 animals by the trapezoidal rule (0-6 h | for rats and 0-8 h for squirrel monkeys). | ^c AUC of BRL44385 from prodrug/AUC of BRL44385 from oral BRL44385

Series [2] in a line: Concentrations of BRL44385 and its prodrugs detected in the blood of mice after oral administration (Table 1). The following applies: mouse, 200 umol/kg, total 9-alkoxypurines, 0.2 mmol/kg oral gavage. In kind it is in vivo, female Balb/c mice. The protocol:
|Concentrations of BRL44385 and its Prodrugs Detected in the |Blood of Mice after Oral Administration of |9-(Alkoxymethoxypropoxy)purines^a | ^a Compounds were administered as single doses of 0.2 mmol/kg in 0.1 | ml of 1% (carboxymethyl)cellulose by oral gavage to female Balb/c mice | weighing approximately 20 g. Food was withheld for 18 h prior to the star | of the experiment. Blood was collected by cardiac puncture using | heparinised syringes 15, 60 and 180 min after dosing. Equal volumes (0.2 | ml) from three mice were pooled at each time point and 0.6 ml of 16% | trichloroacetic acid was added. After centrifugation, 0.5 ml of | supernatent was added to 0.1 ml of saturated aqueous NaHCO3 followed | by the addition of 0.6 ml of 0.4M NH4 OAc (pH 6.0) and the mixture | analysed by HPLC. | ^b 9-Alkoxypurine concentrations <2 μM were detected in the blood | 180 min after dosing.

Read-outs that look alike come from different tables or passages of the source.

`CC(C)OCOCCCOn1cnc2cnc(N)nc21` [Example 1, 2-Amino-9-[3-(isopropoxymethoxy)propoxy)purine]: the AUC at 8 h in series [1] (analyte BRL55792, read-out: Mean Area-under-the-curve ± SEM for BRL 55792) was found to be 13 ± 5.7 µM·h.
As for `Nc1nc(O)c2ncn(OCCCO)c2n1` [Example E1, 9-(3-hydroxyprop-1-oxy)guanine], in series [1] (analyte BRL44385, read-out: Mean Area-under-the-curve ± SEM for BRL 44385), the AUC at 8 h worked out at 13 ± 2.4 µM·h. Besides, the concentration at 0.25 h in series [2] (15 min, read-out: Concn in blood at time (min) after dosing: total 9-alkoxypurines, 15) is 8.9 µM. Moreover, the concentration at 1 h in series [2] (60 min, read-out: Concn in blood at time (min) after dosing: total 9-alkoxypurines, 60) is 4 µM.
